From article PMC9635468, “Biological evaluation, docking studies, and in silico ADME prediction of some pyrimidine and pyridine derivatives as potential EGFR^WT and EGFR^T790M inhibitors” (Journal of Enzyme Inhibition and Medicinal Chemistry, 2022)
≈ marks a conversion by molar mass, not a printed value.

Experiments:
EGFR (Wild) = EGFR (Wild) (Homo sapiens, UniProt P00533); experiment: EGFR kinase (wild) inhibition assay, Kinase-Glo MAX
Method: The reagent, Kinase-Glo MAX, was used[50], and luminescence was detected by applying the microplate reader.
The assay protocol was carried out by adding 25 μL of the master mixture: (6 μL Kinase assay buffer + 1 μL ATP (500 μM) + 1 μL PTK substrate + 17 μL water) to each well. Thereafter, 5 μL of the inhibitor solution was added to each well labeled as “test inhibitor”. Meanwhile, for the “positive control" and “blank”, 5 μL of the same solution without inhibitor (inhibitor buffer) was added. To the wells designated as "blank", add 20 μL of Kinase assay buffer. The amount of EGFR required for the assay was calculated and the enzyme was diluted to 1 ng/μL with Kinase assay buffer. The reaction was initiated by adding 20 μL of diluted EGFR enzyme to the wells designated as “positive control” and "test inhibitor control". The wells were incubated at 30°C for 40 minutes, then 50 μL of Kinase-Glo Max reagent was added to each well. The plate was incubated at room temperature for 15 minutes and luminescence was measured using the microplate reader.

HEPG2 cell line = experiment: Annexin V-FITC apoptosis detection by flow cytometry; assay type: cell-based, human; details: HEPG2, 3.8 µg/mL, 48 h; control 16.73
Method: Furthermore, both compounds 8 and 14 were evaluated for apoptosis using flow cytometry on the HEPG2 cell line. The % rate of total apoptosis for control, compound 8, and compound 14 were 16.73, 22.44, and 48.36 (%), respectively.
Liver cancer cells (HEPG2) were seeded in RPMI-1640 media at a density of 250 X 10^3 cells/mL. Both cell cycle and apoptosis evaluations were performed at 3.8 µg/mL for both compounds 8 and 14. The detailed method is described in the Supplementary data (SI 3).
Annexin V-FITC apoptosis detection kit (Beckman Coulter, California, USA) was used as the manufacturer’s recommendation by using (Beckman Coulter EPICS XL flow cytometer, California, USA). […]
Cell cycle evaluation was performed at 3.8 µg/mL of both compounds […]. After 48 h, the cells were harvested, stained and DNA content was quantified.
The most promising cytotoxic compounds (8 and 14) were further assessed for their inhibitory potential against both EGFR Wild and EGFRT T790M. […] The amount of EGFR required for the assay was calculated and the enzyme was diluted to 1 ng/μL with Kinase assay buffer. […] The plate was incubated at room temperature for 15 minutes and luminescence was measured using the microplate reader.

H460 = experiment: Cytotoxicity screening, SRB assay, H460; assay type: cell-based, human; details: for H460 IC50: 48 h; for IC50: Homo sapiens, NCI-H460, 48 h
Method: (§1) In this study, a panel of cell lines was examined for their chemosensitivity. Different concentrations of the synthesised pyridines and pyrimidine derivatives were used in this study (5, 12.5, 25, and 50 µg/mL) for all the examined cell lines. In this study, breast tumour cell line (MCF7), hepatocellular carcinoma cell line (HEPG2), larynx cell line (HEP2), lung cancer cell line (H460), colon cancer cell line (HCT116 and Caco2), hypopharyngeal cell line (FADU), and normal Vero cell line were applied. The full methodology is described in the Supplementary data (SI 1).
(§2) SI 1: Cytotoxicity screening against human cancer cell lines
(§3) In this study, a panel of cell lines was examined for their chemosensitivity. Different concentrations of the synthesized pyridines and pyrimidines derivatives were used in this study (5, 12.5, 25, and 50 µg/ml) for all the examined cell lines. The most sensitive cell line to the treatment regimen was selected and subjected to further investigations to explore the mechanism of this interaction. Human breast tumor cell line (MCF7), human hepatocellular carcinoma cell line (HEPG2), human larynx cell line (HEP2), human lung cancer cell line (H460), human colon cancer cell line (HCT116 and Caco2), human hypopharyngeal cell line (FaDu), and normal cell line Vero were used in this study. It was obtained from the American Type Culture Collection (ATCC, Minnesota, USA). The tumor cell line was maintained at National Cancer Institute (NCI), Cairo, Egypt.
(§4) The antitumor activities of pyridines and pyrimidines derivatives and all tested cell lines were evaluated by sulphorhodamine-B (SRB) assay 1. Briefly, cells were seeded at a density of 3 × 10^3 cells/well in 96-well microtiter plates. They were left to attach for 24 h before incubation with drugs. Next, cells were treated with different concentrations of 5, 12.5, 25, and 50 µg/ml for MCF7, HEPG2, HEP2, HCT116, Caco2, H460, FaDu, and Vero cells. For each concentration, three wells were used and incubation was continued for 48 h. DMSO was used as a control vehicle (1 % v/v). At the end of incubation, cells were fixed with 20 % trichloroacetic acid and stained with 0.4 % SRB dye. The optical density (O.D.) of each well was measured spectrophotometrically at 570 nm using an ELISA microplate reader (TECAN sunrise™, Germany). The mean survival fraction at each drug concentration was calculated as follows: […]
(§5) O.D. of the treated cells/O.D. of the control cells. The IC50 (concentration that produces 50% of cell growth inhibition) value of each drug was calculated using sigmoidal dose-response curve-fitting models (Graph Pad Prizm software, version 5) 1.

HEP2 = experiment: Cytotoxicity screening, SRB assay, HEP2; assay type: cell-based, human; details: for HEP2 IC50: 48 h; for IC50: Homo sapiens, HEp-2, 48 h
Method: as §1, §2, §3, §4, §5

T47D = experiment: Cytotoxicity screening, SRB assay, T47D; assay type: cell-based, human; details: Homo sapiens, T47D, 48 h

Chain of EGFR (Wild) (P00533 25-1210): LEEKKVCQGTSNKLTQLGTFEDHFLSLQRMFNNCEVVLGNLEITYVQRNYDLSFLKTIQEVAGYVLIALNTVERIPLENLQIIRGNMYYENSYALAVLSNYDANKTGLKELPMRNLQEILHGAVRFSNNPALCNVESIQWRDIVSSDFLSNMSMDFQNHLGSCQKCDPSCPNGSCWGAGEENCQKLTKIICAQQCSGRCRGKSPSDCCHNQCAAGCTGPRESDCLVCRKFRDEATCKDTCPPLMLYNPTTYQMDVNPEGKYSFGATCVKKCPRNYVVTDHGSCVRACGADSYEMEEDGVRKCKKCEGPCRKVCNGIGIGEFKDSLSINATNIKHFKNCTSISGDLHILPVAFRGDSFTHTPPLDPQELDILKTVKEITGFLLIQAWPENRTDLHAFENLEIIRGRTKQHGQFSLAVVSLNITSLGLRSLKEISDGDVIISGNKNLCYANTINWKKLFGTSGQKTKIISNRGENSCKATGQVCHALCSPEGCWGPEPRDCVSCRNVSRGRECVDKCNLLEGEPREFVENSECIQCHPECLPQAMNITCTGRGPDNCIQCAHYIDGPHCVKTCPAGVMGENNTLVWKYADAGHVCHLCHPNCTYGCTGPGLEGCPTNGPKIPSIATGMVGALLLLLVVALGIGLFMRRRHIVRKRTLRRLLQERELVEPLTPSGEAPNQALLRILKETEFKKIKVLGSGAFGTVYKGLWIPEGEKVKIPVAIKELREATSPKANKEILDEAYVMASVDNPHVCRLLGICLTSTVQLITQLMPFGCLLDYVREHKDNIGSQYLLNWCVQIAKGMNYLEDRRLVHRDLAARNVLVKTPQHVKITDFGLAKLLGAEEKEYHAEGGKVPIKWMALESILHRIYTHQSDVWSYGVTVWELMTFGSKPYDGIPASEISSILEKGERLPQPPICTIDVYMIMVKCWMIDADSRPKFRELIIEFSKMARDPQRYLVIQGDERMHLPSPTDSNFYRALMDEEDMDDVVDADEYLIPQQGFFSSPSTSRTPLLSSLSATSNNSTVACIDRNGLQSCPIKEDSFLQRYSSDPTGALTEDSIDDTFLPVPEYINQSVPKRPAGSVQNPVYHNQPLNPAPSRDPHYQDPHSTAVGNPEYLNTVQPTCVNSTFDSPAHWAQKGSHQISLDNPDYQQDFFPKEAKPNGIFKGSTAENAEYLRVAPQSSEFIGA

For `N#Cc1c(-c2cccs2)cc(-c2ccco2)[nH]c1=O` [Compound 14], the IC50 (EGFR (Wild)) was 203 ± 12 nM, the “% rate of total apoptosis” value (HEPG2 cell line) was 48.36% and the “H460 IC50” value (H460) was 8.00 µg/mL. For the same compound, the IC50 (H460) was 12.5 µg/mL (≈ 46.6 µM), the “HEP2 IC50” value (HEP2) was 4.70 µg/mL and the IC50 (HEP2) was 8 µg/mL (≈ 29.8 µM). For the same compound, the IC50 (T47D) was 4.7 µg/mL (≈ 17.5 µM).

`Oc1n[nH]c2nc(-c3ccco3)cc(-c3cccs3)c12` [Compound 8] was tested, and the IC50 (EGFR (Wild)) was 131 ± 8 nM, the “% rate of total apoptosis” value (HEPG2 cell line) was 22.44% and the “H460 IC50” value (H460) was 11.70 µg/mL. For the same compound, the IC50 (H460) was 8.5 µg/mL (≈ 30 µM), the “HEP2 IC50” value (HEP2) was 7.90 µg/mL and the IC50 (HEP2) was 4.4 µg/mL (≈ 15.5 µM). The IC50 (T47D) was 7.5 µg/mL (≈ 26.5 µM).
